Measured values published in US20210038607A1, “OXADIAZOLYLTHIOPHENE DERIVATIVES USEFUL AS HISTONE DEACETYLASE INHIBITORS” (Karus Therapeutics Limited, priority 2018, published 2021).

What was measured:
Human HDAC8 = target: T1, Human HDAC8 (Homo sapiens, UniProt Q9BY41); experiment: HDAC8 biochemical assay, AMC-labeled peptide substrate; settings: read-out: HDAC Isoform IC50 (nM) 8
T1 construct: full length with C-terminal His tag, MW=42.6 kDa; His (C); host or cells: baculovirus expression system
T1 sequence (Q9BY41 1-377): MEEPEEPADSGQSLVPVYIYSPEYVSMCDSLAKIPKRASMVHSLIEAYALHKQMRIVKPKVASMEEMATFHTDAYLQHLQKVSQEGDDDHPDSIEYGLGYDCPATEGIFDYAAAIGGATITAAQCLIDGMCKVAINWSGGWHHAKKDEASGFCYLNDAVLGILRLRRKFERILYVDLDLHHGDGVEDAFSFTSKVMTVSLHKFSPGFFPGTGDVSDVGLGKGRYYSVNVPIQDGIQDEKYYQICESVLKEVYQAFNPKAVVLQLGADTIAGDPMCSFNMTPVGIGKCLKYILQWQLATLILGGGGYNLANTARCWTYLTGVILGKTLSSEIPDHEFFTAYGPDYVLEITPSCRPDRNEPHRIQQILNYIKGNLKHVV
Method in brief: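 Full-length human HDAC8 with C-terminal His tag, baculovirus-expressed, 1 ng/ul, with 100 µM RHK(Ac)K(Ac)AMC substrate in Tris-HCl pH8.0 buffer with BSA, 1% DMSO. Incubated 2 h at 30° C, then developer added to cleave deacetylated substrate; fluorescence read at 360/460 Ex/Em.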

Human HDAC4 = target: T2, Human HDAC4 (Homo sapiens, UniProt P56524); experiment: HDAC4 biochemical assay, class IIa-specific substrate; settings: read-out: HDAC Isoform IC50 (nM) 4
T2 construct: amino acids 627-1085 with N-terminal GST tag; GST (N); host or cells: baculovirus expression system
T2 sequence (P56524 627-1084 limits assumed): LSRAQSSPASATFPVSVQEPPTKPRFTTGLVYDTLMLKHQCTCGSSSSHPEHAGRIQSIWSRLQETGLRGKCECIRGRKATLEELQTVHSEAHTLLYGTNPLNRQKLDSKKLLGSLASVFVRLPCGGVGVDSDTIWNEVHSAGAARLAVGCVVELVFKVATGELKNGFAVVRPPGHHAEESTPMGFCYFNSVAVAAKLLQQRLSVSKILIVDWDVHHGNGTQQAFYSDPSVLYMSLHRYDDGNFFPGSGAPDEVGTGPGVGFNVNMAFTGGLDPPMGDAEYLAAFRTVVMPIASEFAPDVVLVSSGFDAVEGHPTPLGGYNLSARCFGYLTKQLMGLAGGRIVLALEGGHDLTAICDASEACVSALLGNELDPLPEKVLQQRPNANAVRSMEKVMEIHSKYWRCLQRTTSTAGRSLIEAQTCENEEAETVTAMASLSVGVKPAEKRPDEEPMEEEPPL
Method in brief: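 GST-tagged human HDAC4 (aa 627-1085, baculovirus) at 0.004 ng/ul was incubated 30 min at room temperature with 50 μM class IIa-specific substrate BOC-Lys(trifluoroacetyl)-AMC in Tris-HCl pH 8.0 buffer with BSA, 1% DMSO. Developer then released AMC, read at 360/460 nm.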

Human HDAC2 = target: T3, Human HDAC2 (Homo sapiens, UniProt Q92769); experiment: HDAC2 biochemical assay, AMC-labeled peptide substrate; settings: read-out: HDAC Isoform IC50 (nM) 2
T3 construct: full length with C-terminal GST-tag; GST (C); host or cells: baculovirus expression system
T3 sequence (Q92769 whole entry, canonical isoform): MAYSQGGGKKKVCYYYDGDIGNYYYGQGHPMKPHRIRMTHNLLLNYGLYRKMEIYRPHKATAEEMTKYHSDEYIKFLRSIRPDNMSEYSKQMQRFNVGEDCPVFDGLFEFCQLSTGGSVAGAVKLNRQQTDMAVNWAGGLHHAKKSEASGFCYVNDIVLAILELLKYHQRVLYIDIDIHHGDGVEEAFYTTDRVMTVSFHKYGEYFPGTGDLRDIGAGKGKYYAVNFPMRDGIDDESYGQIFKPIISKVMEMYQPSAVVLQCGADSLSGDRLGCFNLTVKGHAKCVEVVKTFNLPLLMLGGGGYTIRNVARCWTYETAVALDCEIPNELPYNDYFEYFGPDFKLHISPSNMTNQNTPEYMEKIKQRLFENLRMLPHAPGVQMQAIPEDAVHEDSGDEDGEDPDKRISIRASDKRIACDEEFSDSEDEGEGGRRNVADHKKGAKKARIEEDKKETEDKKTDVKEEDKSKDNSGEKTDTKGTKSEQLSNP
Method in brief: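 Full-length human HDAC2 with C-terminal GST tag, baculovirus-expressed, at 0.07 ng/ul with 50 μM RHKK(Ac)AMC substrate in Tris-HCl pH8.0 buffer with BSA, 1% DMSO final. Incubated 1 hour at 30° C with compounds, then developer added; fluorescence read at 360/460 Ex/Em.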

Human HDAC10 = target: T4, Human HDAC10 (Homo sapiens, UniProt Q969S8); experiment: HDAC10 biochemical assay, AMC-labeled peptide substrate; settings: read-out: HDAC Isoform IC50 (nM) 10
T4 construct: Human HDAC10 (a.a. 1-481); GST (N); His (C); host or cells: baculovirus expression system
T4 sequence (Q969S8 1-481): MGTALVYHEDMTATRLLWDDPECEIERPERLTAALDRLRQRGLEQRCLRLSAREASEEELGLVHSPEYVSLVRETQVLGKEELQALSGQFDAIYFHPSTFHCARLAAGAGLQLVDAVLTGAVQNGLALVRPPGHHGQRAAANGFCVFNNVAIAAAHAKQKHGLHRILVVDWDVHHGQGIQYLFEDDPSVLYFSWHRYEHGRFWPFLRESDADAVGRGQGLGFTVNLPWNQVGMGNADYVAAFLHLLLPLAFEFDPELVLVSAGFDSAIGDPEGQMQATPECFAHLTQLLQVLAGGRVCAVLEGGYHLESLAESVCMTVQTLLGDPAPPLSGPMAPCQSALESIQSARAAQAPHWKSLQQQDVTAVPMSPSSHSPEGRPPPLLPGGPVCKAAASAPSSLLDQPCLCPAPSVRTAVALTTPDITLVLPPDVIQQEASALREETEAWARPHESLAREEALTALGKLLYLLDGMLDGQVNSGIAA
Method in brief: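 Baculovirus-expressed GST/His-tagged human HDAC10 (aa 1-481), 12 ng/ul, incubated with 50 μM RHKK(Ac)AMC in Tris pH 8.0 buffer with BSA and 1% DMSO, 2 h at 30 °C. Developer then releases AMC, read at 360/460 nm.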

Human HDAC5 = target: T5, Human HDAC5 (Homo sapiens, UniProt Q9UQL6); experiment: HDAC5 biochemical assay, class IIa-specific substrate; settings: read-out: HDAC Isoform IC50 (nM) 5
T5 construct: full length with C-terminal His tag, MW=51.1 kDa; His (C); host or cells: baculovirus expression system
T5 sequence (Q9UQL6 656-1122 limits assumed): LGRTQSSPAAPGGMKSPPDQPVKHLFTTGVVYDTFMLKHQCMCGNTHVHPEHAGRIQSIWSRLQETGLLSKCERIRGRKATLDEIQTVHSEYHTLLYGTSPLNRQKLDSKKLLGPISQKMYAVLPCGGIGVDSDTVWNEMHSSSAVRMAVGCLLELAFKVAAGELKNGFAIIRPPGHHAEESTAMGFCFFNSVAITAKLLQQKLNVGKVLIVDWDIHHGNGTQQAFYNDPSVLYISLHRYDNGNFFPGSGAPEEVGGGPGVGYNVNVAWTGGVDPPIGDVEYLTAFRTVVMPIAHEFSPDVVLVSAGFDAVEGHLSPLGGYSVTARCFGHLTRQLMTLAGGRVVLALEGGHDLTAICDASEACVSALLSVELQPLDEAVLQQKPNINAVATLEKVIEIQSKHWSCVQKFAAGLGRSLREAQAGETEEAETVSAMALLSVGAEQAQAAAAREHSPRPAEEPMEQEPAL
Method in brief: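 Full-length C-terminal His-tagged HDAC5 from baculovirus (0.05 ng/ul) incubated 30 min at room temperature with 50 μM Boc-Lys(trifluoroacetyl)-AMC and compound, Tris pH 8.0 buffer with BSA, 1% DMSO. Developer then releases AMC; fluorescence 360/460 nm.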

Human HDAC9 = target: T6, Human HDAC9 (Homo sapiens, UniProt Q9UKV0); experiment: HDAC9 biochemical assay, class IIa-specific substrate; settings: read-out: HDAC Isoform IC50 (nM) 9
T6 construct: amino acids 604-1066 with C-terminal His tag; His (C); host or cells: baculovirus expression system
T6 sequence (Q9UKV0 604-1066 isoform Q9UKV0-5): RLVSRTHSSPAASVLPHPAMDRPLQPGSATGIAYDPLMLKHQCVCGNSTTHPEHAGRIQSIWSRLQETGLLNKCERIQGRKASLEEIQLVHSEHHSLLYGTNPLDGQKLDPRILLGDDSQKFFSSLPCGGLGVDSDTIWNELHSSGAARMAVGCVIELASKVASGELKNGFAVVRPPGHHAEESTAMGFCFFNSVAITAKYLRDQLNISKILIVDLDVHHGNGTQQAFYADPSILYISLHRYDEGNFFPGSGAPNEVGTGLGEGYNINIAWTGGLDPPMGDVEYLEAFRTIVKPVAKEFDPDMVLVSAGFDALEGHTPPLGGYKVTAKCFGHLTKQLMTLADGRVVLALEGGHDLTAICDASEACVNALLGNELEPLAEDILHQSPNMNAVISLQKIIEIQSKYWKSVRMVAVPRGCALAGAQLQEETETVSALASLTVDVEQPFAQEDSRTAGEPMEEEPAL
Method in brief: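 HDAC9 residues 604-1066 (C-terminal His tag, baculovirus-expressed) at 0.06 ng/ul with 50 μM class IIa substrate Boc-Lys(trifluoroacetyl)-AMC in Tris-HCl pH 8.0 buffer with BSA and 1% DMSO. 30 min at room temperature, then developer added; fluorescence read at 360/460 nm Ex/Em.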

Row | Structure (SMILES) | IC50 (Human HDAC8) [nM] | IC50 (Human HDAC4) [nM] | IC50 (Human HDAC2) [nM] | IC50 (Human HDAC10) [nM] | IC50 (Human HDAC5) [nM] | IC50 (Human HDAC9) [nM]
1 | COc1nccnc1N(Cc1ccc(-c2noc(C(F)(F)F)n2)s1)c1cnccn1 [Example BF, 3-Methoxy-N-(pyrazin-2-yl)-N-({5-[5-(trifluoromethyl)-1,2,4-oxadiazol-3-yl]thiophen-2-yl}methyl)pyrazin-2-amine] | ≤ 10000 | ≤ 10000 | > 10000 | > 10000 | ≤ 10000 | ≤ 10000
2 | Cc1cnnc(N(Cc2ccc(-c3noc(C(F)(F)F)n3)s2)c2cnccn2)c1 [Example GN, 5-Methyl-N-(pyrazin-2-yl)-N-({5-[5-(trifluoromethyl)-1,2,4-oxadiazol-3-yl]thiophen-2-yl}methyl)pyridazin-3-amine] | ≤ 10000 | ≤ 1000 | > 10000 | > 10000 | ≤ 1000 | ≤ 10000
3 | N#Cc1cnnc(N(Cc2ccc(-c3noc(C(F)(F)F)n3)s2)c2cnccn2)c1 [Example EE, 6-[(Pyrazin-2-yl)({5-[5-(trifluoromethyl)-1,2,4-oxadiazol-3-yl]thiophen-2-yl}methyl)amino]pyridazine-4-carbonitrile] | ≤ 10000 | ≤ 10000 | > 10000 | > 10000 | ≤ 1000 | ≤ 10000
4 | CNC(=O)c1ccc(N(Cc2ccc(-c3noc(C(F)(F)F)n3)s2)c2cnccn2)nn1 [Example FC, N-Methyl-6-[(pyrazin-2-yl)({5-[5-(trifluoromethyl)-1,2,4-oxadiazol-3-yl]thiophen-2-yl}methyl)amino]pyridazine-3-carboxamide] | ≤ 10000 | ≤ 1000 | > 10000 | > 10000 | ≤ 500 | ≤ 10000
5 | CN(C(=O)c1cnnc(N(Cc2ccc(-c3noc(C(F)(F)F)n3)s2)c2cnccn2)c1)S(C)(=O)=O [Example GE, N-Methanesulfonyl-N-methyl-6-[(pyrazin-2-yl)({5-[5-(trifluoromethyl)-1,2,4-oxadiazol-3-yl]thiophen-2-yl}methyl)amino]pyridazine-4-carboxamide] | ≤ 10000 | ≤ 10000 | > 10000 | > 10000 | ≤ 1000 | ≤ 10000
6 | O=C(O)c1cnnc(N(Cc2ccc(-c3noc(C(F)(F)F)n3)s2)c2cnccn2)c1 [Example DW, 6-[(Pyrazin-2-yl)({5-[5-(trifluoromethyl)-1,2,4-oxadiazol-3-yl]thiophen-2-yl}methyl)amino]pyridazine-4-carboxylic acid] | ≤ 10000 | ≤ 10000 | > 10000 | > 10000 | ≤ 10000 | ≤ 10000
7 | O=C(c1ccc(N(Cc2ccc(-c3noc(C(F)(F)F)n3)s2)c2cnccn2)nn1)N1C[C@@H]2C[C@H]1CO2 [Example FE, 6-[(1S,4S)-2-Oxa-5-azabicyclo[2.2.1]heptane-5-carbonyl]-N-(pyrazin-2-yl)-N-({5-[5-(trifluoromethyl)-1,2,4-oxadiazol-3-yl]thiophen-2-yl}methyl)pyridazin-3-amine] | ≤ 10000 | ≤ 500 | > 10000 | > 10000 | ≤ 500 | ≤ 10000
8 | O=C(c1ccc(N(Cc2ccc(-c3noc(C(F)(F)F)n3)s2)c2cnccn2)nn1)N1CCC2(COC2)C1 [Example FJ, 6-{2-Oxa-6-azaspiro[3.4]octane-6-carbonyl}-N-(pyrazin-2-yl)-N-({5-[5-(trifluoromethyl)-1,2,4-oxadiazol-3-yl]thiophen-2-yl}methyl)pyridazin-3-amine] | ≤ 10000 | ≤ 500 | > 10000 | > 10000 | ≤ 500 | ≤ 1000
9 | FC(F)(F)c1nc(-c2ccc(CN(c3cnccn3)c3cnccn3)s2)no1 [Example BA, N-(Pyrazin-2-yl)-N-({5-[5-(trifluoromethyl)-1,2,4-oxadiazol-3-yl]thiophen-2-yl}methyl)pyrazin-2-amine] | ≤ 10000 | ≤ 1000 | > 10000 | > 10000 | ≤ 1000 | ≤ 10000

The next lines start with the values.

Row | IC50 (Human HDAC8) [nM] | IC50 (Human HDAC4) [nM] | IC50 (Human HDAC2) [nM] | IC50 (Human HDAC10) [nM] | IC50 (Human HDAC5) [nM] | IC50 (Human HDAC9) [nM] | Structure (SMILES)
10 | ≤ 10000 | ≤ 1000 | > 10000 | > 10000 | ≤ 500 | ≤ 10000 | O=C(c1cnnc(N(Cc2ccc(-c3noc(C(F)(F)F)n3)s2)c2cnccn2)c1)N1CCC12COC2 [Example GF, 5-{6-Oxa-1-azaspiro[3.3]heptane-1-carbonyl}-N-(pyrazin-2-yl)-N-({5-[5-(trifluoromethyl)-1,2,4-oxadiazol-3-yl]thiophen-2-yl}methyl)pyridazin-3-amine]
11 | ≤ 10000 | ≤ 10000 | > 10000 | > 10000 | ≤ 1000 | ≤ 10000 | O=C(c1cnnc(N(Cc2ccc(-c3noc(C(F)(F)F)n3)s2)c2cnccn2)c1)N1CC(F)(F)C1 [Example FT, 5-(3,3-Difluoroazetidine-1-carbonyl)-N-(pyrazin-2-yl)-N-({5-[5-(trifluoromethyl)-1,2,4-oxadiazol-3-yl]thiophen-2-yl}methyl)pyridazin-3-amine]
12 | ≤ 10000 | ≤ 10000 | > 10000 | > 10000 | ≤ 1000 | ≤ 10000 | O=C(c1cnnc(N(Cc2ccc(-c3noc(C(F)(F)F)n3)s2)c2cnccn2)c1)N1CC[S+]([O-])CC1 [Example FU, 4-{6-[(Pyrazin-2-yl)({5-[5-(trifluoromethyl)-1,2,4-oxadiazol-3-yl]thiophen-2-yl}methyl)amino]pyridazine-4-carbonyl}-1lambda4-thiomorpholin-1-one]
13 | ≤ 10000 | ≤ 10000 | > 10000 | > 10000 | ≤ 1000 | ≤ 10000 | O=C(c1cnnc(N(Cc2ccc(-c3noc(C(F)(F)F)n3)s2)c2cnccn2)c1)N1CC2CCC(C1)O2 [Example GA, 5-{8-Oxa-3-azabicyclo[3.2.1]octane-3-carbonyl}-N-(pyrazin-2-yl)-N-({5-[5-(trifluoromethyl)-1,2,4-oxadiazol-3-yl]thiophen-2-yl}methyl)pyridazin-3-amine]
14 | ≤ 10000 | ≤ 10000 | > 10000 | > 10000 | ≤ 1000 | ≤ 10000 | O=C(c1cnnc(N(Cc2ccc(-c3noc(C(F)(F)F)n3)s2)c2cnccn2)c1)N1CCS(=O)(=O)CC1 [Example ED, 4-{6-[(Pyrazin-2-yl)({5-[5-(trifluoromethyl)-1,2,4-oxadiazol-3-yl]thiophen-2-yl}methyl)amino]pyridazine-4-carbonyl}-1λ^6-thiomorpholine-1,1-dione]
